The source of these data is patent US20260355191A1, “PAN-RAS INHIBITOR COMPOUND” (ADLAI NORTYE BIOPHARMA CO., LTD., priority 2024, published 2026).

For one data set, the system named is AsPC-1. The data set can be described thus: In vitro cell proliferation inhibition assay (CellTiter-Glo), AsPC-1. Type of data set: cell-based. The settings on record: AsPC-1, KRAS (p.G12D), 72 h; read-out: IC50, antiproliferative activity. How it is done:
(§1) Due to the diversity of RAS mutations, and in order to evaluate the activity of the compounds in different RAS mutant cell lines, we selected cell lines with KRAS^G12D, KRAS^G12V, KRAS^G12c, NRAS^q61L, KRAS^G13D, KRAS^G12R, and KRAS^WT mutations (see the table below for in vitro activity evaluation and screening of the compounds.
(§2) According to the doubling time of different cell lines, different numbers of cells (1000-5000 cells/well) were seeded into 96-well plates containing 180 μL of the corresponding culture medium, and incubated overnight in a cell incubator at 37 °C with 5% C02. On the following day, the test compounds were pre-diluted in the culture medium in a 3-fold serial dilution series, with the highest concentration being […], resulting in 10 concentration gradients in total. Subsequently, 20 μL of culture medium containing the compounds at different concentrations was added to the cells in the 96-well plates, ensuring a final compound concentration of up to 10 μM, with 10 concentrations in 3-fold dilution. After co-incubation of the cells with the compounds for 72 h, the 96-well plates were removed from the incubator and equilibrated at room temperature for 30 min. Then, 25 μL of CellTiter-Glo® Reagent was added to each well and mixed thoroughly, followed by incubation at room temperature for 10 min. Subsequently, 100 μL of the samples was transferred to white 96-well plates (OptiPlate™-96, PerkinElmer), and […] signal values were read using a multifunctional microplate reader (SpectraMax i3x, Molecular Devices). The signal values were then normalized, and curve fitting was performed using a four-parameter logistic regression equation to calculate the half maximal inhibitory concentration (IC50) of the compounds against the cell lines.

A further data set has as its system SW480. Briefly: In vitro cell proliferation inhibition assay (CellTiter-Glo), SW480. Type of data set: cell-based. Conditions: SW480, KRAS (p.G12V), 72 h; read-out: IC50, antiproliferative activity. As to the method:
as §1, §2

A further data set relates to H358. Briefly: In vitro cell proliferation inhibition assay (CellTiter-Glo), H358. Conditions: H358, KRAS (p.G12C), 72 h; read-out: IC50, antiproliferative activity. Type of data set: cell-based. How it is done: as §1, §2
The subject of the next data set is HepG2. Briefly: In vitro cell proliferation inhibition assay (CellTiter-Glo), HepG2. Conditions: HepG2, NRAS (p.Q61L), 72 h; read-out: IC50, antiproliferative activity. The data set is classed as cell-based. How it is done:
as §1, §2

The next data set relates to HCT116. Briefly: In vitro cell proliferation inhibition assay (CellTiter-Glo), HCT116. Type of data set: cell-based. Conditions: HCT116, KRAS (p.G13D), 72 h; read-out: IC50, antiproliferative activity. As to the method:
as §1, §2

For another data set, the system named is PSN1. The data set can be described thus: In vitro cell proliferation inhibition assay (CellTiter-Glo), PSN1. The data set is classed as cell-based. The settings on record: PSN1, KRAS (p.G12R), 72 h; read-out: IC50, antiproliferative activity. As to the method: as §1, §2
Another data set concerns MV411. The data set can be described thus: In vitro cell proliferation inhibition assay (CellTiter-Glo), MV411. Type of data set: cell-based. The settings on record: MV411, KRAS wild type, 72 h; read-out: IC50, antiproliferative activity. As to the method:
as §2

The nature of data set [1]: Pharmacokinetic study in mice. The data set is classed as in vivo. The settings on record: mouse, male CD-1 mice; for bioavailability: blood; for bioavailability / AUC / Cmax: po, p.o. 2 mpk; for bioavailability / Vd / clearance: i.v. 1 mpk; for Vd / clearance: iv, 1 mg/kg; for Vd / clearance / AUC / Cmax: whole blood; for AUC / Cmax: 2 mg/kg. As to the method: To evaluate the pharmacokinetic behavior of the compounds of the disclosure in male CD-1 mice, the test compounds were dissolved in a solvent (5% DMSO/10% solutol/85% water). Twelve male CD-1 mice were divided into two groups, with six animals in each group. Group 1 received a single intravenous bolus (i.v.) administration of the compound, and Group 2 received a single oral (p.o.) administration of the compound. Whole blood samples were collected at 0.083 h (intravenous group only), 0.25, 0.5, 1, 2, 4, 8, and 24 hours after dosing. The concentration of the test compound in whole blood samples was determined using the LC-MS/MS method.

A further data set addresses T1, cyclophilin A (CypA) (Homo sapiens, UniProt P62937).
T1 construct: purchased R&D 3589-CAB
The data set can be described thus: Binary complex binding assay (BLI). Conditions: His-tagged CypA, pH 7.4, 1:1 binding model; for Kd: read-out: KD1 (binary complex equilibrium dissociation constant); for kon: read-out: ka (association rate constant); for koff: read-out: kdis (dissociation rate constant). As to the method:
To evaluate the binding ability of the test compounds to cyclophilin A (CypA), we employed a Bio-layer Interferometry (BLI) method (Octet R8) to monitor the binding kinetics between the compounds and CypA, and to calculate the affinity of the binary complex. His-tagged CypA protein (3589-CAB, R&D) was first immobilized on an NTA sensor, followed by baseline equilibration for 120 seconds in the assay buffer (20 mM HEPES, pH 7.4, 150 mM NaCl, 5 mM MgCl2, 1 mM TCEP, 0.01% Tween 20). The sensor was then exposed to buffer solutions containing different concentrations of the compounds to monitor the association process in real time. When the high-concentration compound binding reached a plateau, the sensor was transferred to compound-free buffer to measure the dissociation process. To ensure data accuracy, DMSO normalization was performed, non-specific binding was minimized by buffer optimization, and negative and positive controls were set to verify assay specificity. Data were processed using Octet Analysis Studio 13.0, analyzed using a 1:1 binding model, and the association rate constant (ka), dissociation rate constant (kdis), and equilibrium dissociation constant (KD1) were calculated.

The target in data set [2] is ternary complex comprising RAS and CypA; KRAS^G12D (Homo sapiens, UniProt P01116+P62937, G12D). Briefly: Ternary complex binding assay (BLI), KRAS G12D. Conditions: GMPPNP-loaded KRAS^G12D, fixed concentration of CypA, pH 7.4, read-out: KD2 (ternary complex equilibrium dissociation constant). As to the method: (§3) To evaluate the ability of the test compounds to induce the formation of a ternary complex comprising RAS and CypA, we employed a Bio-layer Interferometry (BLI) method (Octet R8) to monitor the binding kinetics among the compounds, RAS, and CypA, and to calculate the affinity of the ternary complex. GMPPNP was first incubated with RAS protein to load GMPPNP onto RAS. His-tagged RAS proteins with different mutations were then immobilized on NTA sensors, followed by baseline equilibration for 120 seconds in the assay buffer (20 mM HEPES, pH 7.4, 150 mM NaCl, 5 mM MgCl2, 1 mM TCEP, 5 μM GMPPNP, 0.01% Tween 20). The sensors were subsequently exposed to buffer containing various concentrations of the compounds and a fixed concentration of CypA, and the association phase of ternary complex formation was monitored in real time. Once binding reached a plateau, the sensors were transferred to compound- and CypA-free buffer to measure the dissociation phase. To ensure accuracy, DMSO normalization was performed, buffer composition was optimized to reduce non-specific binding, and both negative and positive controls were employed to verify assay specificity. Data were processed using Octet Analysis Studio 13.0, analyzed using a 1:1 binding model, and the association rate constant (ka), dissociation rate constant (kdis), and equilibrium dissociation constant (KD2) were calculated.
ternary complex comprising RAS and CypA; KRAS^G12D, sequence (P01116 1-188 isoform P01116-2 G12D): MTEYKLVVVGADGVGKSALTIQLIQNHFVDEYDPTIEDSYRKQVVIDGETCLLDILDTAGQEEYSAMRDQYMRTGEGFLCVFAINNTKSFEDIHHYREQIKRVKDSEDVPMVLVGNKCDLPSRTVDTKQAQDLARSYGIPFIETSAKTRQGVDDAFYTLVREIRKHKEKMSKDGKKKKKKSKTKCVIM
ternary complex comprising RAS and CypA; KRAS^G12D, sequence (P62937 whole entry): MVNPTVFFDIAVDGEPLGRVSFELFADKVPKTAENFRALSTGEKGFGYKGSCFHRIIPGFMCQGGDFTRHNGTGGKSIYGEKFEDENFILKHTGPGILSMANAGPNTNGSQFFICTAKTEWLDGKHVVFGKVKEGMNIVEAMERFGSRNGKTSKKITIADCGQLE

For data set [3], the target named is ternary complex comprising RAS and CypA; KRAS^G12V (Homo sapiens, UniProt P01116+P62937, G12V). The data set can be described thus: Ternary complex binding assay (BLI), KRAS G12V. Conditions: GMPPNP-loaded KRAS^G12V, fixed concentration of CypA, pH 7.4, read-out: KD2 (ternary complex equilibrium dissociation constant). How it is done:
as §3

Data set [4] deals with ternary complex comprising RAS and CypA; KRAS^WT (Homo sapiens, UniProt P01116+P62937). The data set can be described thus: Ternary complex binding assay (BLI), KRAS WT. Conditions: GMPPNP-loaded KRAS^WT, fixed concentration of CypA, pH 7.4, read-out: KD2 (ternary complex equilibrium dissociation constant). How it is done: as §3
ternary complex comprising RAS and CypA; KRAS^WT, sequence (P01116 1-188 isoform P01116-2): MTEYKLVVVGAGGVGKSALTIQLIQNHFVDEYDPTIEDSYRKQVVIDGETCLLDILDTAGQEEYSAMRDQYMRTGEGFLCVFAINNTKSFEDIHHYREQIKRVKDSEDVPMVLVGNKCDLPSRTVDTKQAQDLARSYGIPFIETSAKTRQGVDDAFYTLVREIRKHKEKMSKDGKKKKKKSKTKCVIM
ternary complex comprising RAS and CypA; KRAS^WT, sequence (P62937 whole entry): as the sequence (P62937 whole entry) above

T1 sequence (P62937 whole entry): as above
ternary complex comprising RAS and CypA; KRAS^G12V, sequence (P01116 1-188 isoform P01116-2 G12V): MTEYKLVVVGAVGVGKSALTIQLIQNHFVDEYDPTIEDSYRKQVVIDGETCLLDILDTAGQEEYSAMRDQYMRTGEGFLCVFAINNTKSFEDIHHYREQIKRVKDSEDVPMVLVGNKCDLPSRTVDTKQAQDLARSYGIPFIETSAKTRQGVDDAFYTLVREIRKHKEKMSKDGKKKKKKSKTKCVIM
ternary complex comprising RAS and CypA; KRAS^G12V, sequence (P62937 whole entry): as the sequence (P62937 whole entry) above

As to `CCn1c(-c2cc(-c3nnc(C4CCN(C5COC5)CC4)o3)cnc2[C@H](C)OC)c2c3cc(ccc31)-c1csc(n1)C[C@H](NC(=O)[C@H]1[C@H](C)[C@@H]1C)C(=O)N1CCC[C@H](N1)C(=O)OCC(C)(C)C2` (atropisomer, axis not shown) [Compound 2, (1r,2R,3S)—N-((6^3S,4S,Z)-1^1-ethyl-1^2-(2-((S)-1-methoxyethyl)-5-(5-(1-(oxetan-3-yl)piperidin-4-yl)-1,3,4-oxadiazol-2-yl)pyridin-3-yl)-10,10-dimethyl-5,7-dioxo-6^1,6^2,6^3,6^4,6^5,6^6-hexahydro-1^1H-8-oxa-2(4,2)-thiazola-1(5,3)-indola-6(1,3)-pyridazinacycloundecaphane-4-yl)-2,3-dimethylcyclopropane-1-carboxamide], the IC50 with AsPC-1 was 60 pM; with SW480 it was 90 pM; in the data set with H358 it was 2 pM; in the data set with HepG2 it was 10 pM; with HCT116 it was 70 pM; with PSN1 it was 10 pM. Moreover, in the data set with MV411, the IC50 was found to be 160 pM. Moreover, the bioavailability in data set [1] was determined as 24.5%. Besides, the Vd in data set [1] came out at 1.95 L/kg. The same compound gave a clearance in data set [1] of 4.6 mL/min/kg. Besides, the AUC in data set [1] came to 1790 ng·h/mL. In [1], this compound came in with a Cmax of 167 ng/mL.

In the case of `CCn1c(-c2cc(-c3nc(C4CCN(C5COC5)CC4)n(C)n3)cnc2[C@H](C)OC)c2c3cc(ccc31)-c1csc(n1)C[C@H](NC(=O)[C@H]1[C@H](C)[C@@H]1C)C(=O)N1CCC[C@H](N1)C(=O)OCC(C)(C)C2` (atropisomer, axis not shown) [Compound 4, (1r,2R,3S)—N-((6^3S,4S,Z)-1^1-ethyl-1^2-(2-((S)-1-methoxyethyl)-5-(1-methyl-5-(1-(oxetan-3-yl)piperidin-4-yl)-1H-1,2,4-triazol-3-yl)pyridin-3-yl)-10,10-dimethyl-5,7-dioxo-6^1,6^2,6^3,6^4,6^5,6^6-hexahydro-1^1H-8-oxa-2(4,2)-thiazola-1(5,3)-indola-6(1,3)-pyridazinacycloundecaphane-4-yl)-2,3-dimethylcyclopropane-1-carboxamide], the IC50 amounted to 210 pM in the data set on AsPC-1; 520 pM in the data set with SW480; 1 pM in the data set on H358; 60 pM in the data set with HepG2; 2800 pM with HCT116; 70 pM in the data set on PSN1. In addition, in the data set with MV411, the IC50 came to 350 pM. Also, the Kd stood at 810 pM on cyclophilin A (CypA), 43000 pM in data set [2], 25000 pM in data set [3] and 27000 pM in [4]. For the same compound, the kon on cyclophilin A (CypA) was found to be 150000 M⁻¹ s⁻¹. In addition, the koff at cyclophilin A (CypA) amounted to 0.00012 s⁻¹.

On to `CCn1c(-c2cc(-c3nnc(C4CCN(C5CN(C(C)C)C5)CC4)o3)cnc2[C@H](C)OC)c2c3cc(ccc31)-c1csc(n1)C[C@H](NC(=O)[C@H]1C[C@@H]1C)C(=O)N1CCC[C@H](N1)C(=O)OCC(C)(C)C2` (atropisomer, axis not shown) [Compound 7, (1S,2S)—N-((6^3S,4S,Z)-1^1-ethyl-1^2-(5-(5-(1-(1-isopropylazetidin-3-yl)piperidin-4-yl)-1,3,4-oxadiazol-2-yl)-2-((S)-1-methoxyethyl)pyridin-3-yl)-10,10-dimethyl-5,7-dioxo-6^1,6^2,6^3,6^4,6^5,6^6-hexahydro-1^1H-8-oxa-2(4,2)-thiazola-1(5,3)-indola-6(1,3)-pyridazinacycloundecaphane-4-yl)-2-methylcyclopropane-1-carboxamide], for which the IC50 in the data set on AsPC-1 came out at 30 pM; in the data set on SW480, 140 pM; in the data set with H358 it was 4 pM; in the data set with HepG2 it was 50 pM; in the data set on HCT116 it was 700 pM; with PSN1, 50 pM. Also, the 50% inhibitory concentration (IC50) with MV411 turned out to be 490 pM. For the same compound, the results for the Kd (at cyclophilin A (CypA); in [2]) were 16000 pM and 19000 pM, respectively. Further, on cyclophilin A (CypA), the kon turned out to be 230000 M⁻¹ s⁻¹. In addition, the koff on cyclophilin A (CypA) was determined as 0.0037 s⁻¹.

Turning to `CO[C@@H](C)c1ncc(-c2nnc(C3CCN(C4COC4)CC3)o2)cc1-c1c2c3cc(ccc3n1CC(F)(F)F)-c1csc(n1)C[C@H](NC(=O)C1C[C@@H]1C)C(=O)N1N[C@H](C(=O)OCC(C)(C)C2)C2CC1C2` (stereo partly drawn) [Compound 9], the IC50 amounted to 90 pM in the data set with AsPC-1; 60 pM with SW480; 41 pM in the data set with H358; 160 pM in the data set with HepG2; 230 pM in the data set on HCT116; 10 pM in the data set on PSN1. Also, the IC50 in the data set with MV411 was 760 pM. Besides, the bioavailability in data set [1] is 63.3%. The compound further displayed a Vd in [1] of 2.87 L/kg. Further, the clearance in data set [1] was 3.7 mL/min/kg. In data set [1], this compound registered an AUC of 5740 ng·h/mL. This compound also gave a Cmax in data set [1] of 248 ng/mL.
